Measurements: PMC9696794, “Synthesis and Antimicrobial Activity of Short Analogues of the Marine Antimicrobial Peptide Turgencin A: Effects of SAR Optimizations, Cys-Cys Cyclization and Lipopeptide Modifications” (International Journal of Molecular Sciences, 2022)
≈ marks a conversion by molar mass, not a printed value. Where a SMILES comes first, the peptide text is derived from it. Bridges are numbered along the chain shown (N, C = ends).

Assays:
E. coli (Ec, ATCC 25922) = experiment: microbe, parasite or virus in culture; format: cell-based, Escherichia coli
Description: (§1) All cyclic and linear peptides were screened for antibacterial activity against four Gram-positive strains: B. subtilis (Bs, ATCC 23857), C. glutamicum (Cg, ATCC 13032), S. aureus (Sa, ATCC 9144) and S. epidermidis RP62A (Se, ATCC 35984), and two Gram-negative strains: E. coli (Ec, ATCC 25922) and P. aeruginosa (Pa, ATCC 27853). The activity was assessed using a broth microdilution assay according to a modified CLSI-based method. Briefly, overnight bacterial cultures were grown in Mueller–Hinton (MH) broth medium (Difco Laboratories, Detroit, MI, USA) for 2 h at room temperature. The optical density (OD600) was measured, and the bacterial suspensions were adjusted to 2.5–3 × 10^4 CFU/mL in MH medium. The bacterial suspension (50 µL) was distributed in 96-well plates (Nunc, Roskilde, Denmark) preloaded with two-fold dilution series (256 to 1 µg/mL) of peptide solutions (50 µL), giving a final well volume of 100 µL. The microplates were incubated in an EnVision 2103 microplate reader (PerkinElmer, Llantrisant, UK) at 35 °C, with OD595 recorded every hour for 24 h. MIC was defined as the lowest concentration of peptides showing an optical density less than 10% of the negative (growth) control, consisting of bacterial suspension and water. Polymyxin B sulfate (Sigma-Aldrich, St. Louis, MO, USA) and chlorhexidine acetate (CHX, Fresenius Kabi, Halden, Norway), both with concentrations ranging from 12.5 to 0.09 μg/mL, served as positive (growth inhibition) controls. All peptides were tested in triplicate.

[1] = tested on: E. coli MC4100 (wild type, WT); experiment: microbe, parasite or virus in culture
Description: as §1
(§2) MIC values were determined for all cyclic peptides against two E. coli strains: wild type (WT) MC4100 and the hyperpermeable variant NR698, having a deficient outer membrane. The NR698 strain, containing lptD4213/imp4213 mutation, was kindly provided by M. Grabowicz (Emory University School of Medicine, Rollins Research Center, Atlanta, GA, USA). The assay was performed in the same way as previously described for the antibacterial MIC assay.

[2] = tested on: E. coli NR698 (outer membrane permeable mutant, imp4213); experiment: microbe, parasite or virus in culture; settings: for MIC E. coli NR698 (mutant): MC4100 NR698 imp4213, deficient outer membrane
Description: as §1, §2

[3] = tested on: B. subtilis (Bs, ATCC 23857); experiment: microbe, parasite or virus in culture; format: cell-based, Bacillus subtilis
Description: as §1

[4] = tested on: C. glutamicum (Cg, ATCC 13032); experiment: microbe, parasite or virus in culture; format: cell-based, Corynebacterium glutamicum
Description: as §1

[5] = tested on: S. aureus (Sa, ATCC 9144); experiment: microbe, parasite or virus in culture; format: cell-based, Staphylococcus aureus
Description: as §1

[6] = tested on: S. epidermidis RP62A (Se, ATCC 35984); experiment: microbe, parasite or virus in culture; format: cell-based, Staphylococcus epidermidis
Description: as §1

[7] = tested on: P. aeruginosa (Pa, ATCC 27853); experiment: microbe, parasite or virus in culture; format: cell-based, Pseudomonas aeruginosa
Description: as §1

all bacterial strains = experiment: Antibacterial MIC assay, all bacterial strains together (range or geometric mean); format: cell-based
Description: The selectivity index (SI) of the peptides towards bacteria over eukaryotic cells was calculated using the geometric mean (GM) of the MIC values against all bacterial test strains, according to the method by Orlov et al.. The SI for each peptide was determined as the ratio of the RBC-EC50 value by the corresponding GM value. Larger SI values indicate greater selectivity for microbial cells. […] In general, the SI was higher against the Gram-positive bacteral strains than the Gram-negative strains. (Table S3). Overall, peptides displaying EC50 < 100 µg/mL were considered too haemolytic to be of interest for further exploration.
as §1

A. pullulans (Ap) = experiment: microbe, parasite or virus in culture; format: cell-based, Aurobasidium pollulans; settings: 48 h
Description: (§3) The synthesized peptides were screened for antifungal activity against the molds A. pullulans (Ap) and Rhodotorula sp. (Rh) (both obtained from Professor Arne Tronsmo, The Norwegian University of Life Sciences, Ås, Norway) and the yeast C. albicans (Ca, ATCC 10231) as previously described. In short, fungal spores were grown in potato dextrose broth media (Difco) containing 2% D(+)-glucose (Merck, Darmstadt, Germany) at 25–30 °C while shaking at 200 rpm overnight. The cultures were diluted with a dextrose media containing glucose to a concentration of approx. 4 × 10^5 spores/mL. Aliquots of the cultures (50 µL) were transferred to 96 well microtiter plates preloaded with the synthetic peptides (50 µL) in two-fold serial dilutions (256 to 1 µg/mL). Polymyxin B and CHX (both with concentrations ranging from 12.5 to 0.09 μg/mL) served as positive antibiotic controls. The microtiter plates containing the fungal spores and the test peptides were incubated at room temperature for 48 h and OD600 was recorded using a Synergy H1 Hybrid microplate reader system (BioTek, Winooski, VT, USA). MIC was defined as the lowest peptide concentration showing an optical density less than 10% of the negative (growth) control. All experiments were performed in triplicate.

[8] = tested on: C. albicans (Ca, ATCC 10231); experiment: microbe, parasite or virus in culture; format: cell-based, Candida albicans
Description: as §3

Rhodotorula sp. (Rh) = experiment: microbe, parasite or virus in culture; format: cell-based; settings: 48 h
Description: as §3

[9] = tested on: Gram-positive bacterial strains; settings: Table S3; MIC >256 set to 256
Description: as §1

[10] = tested on: Gram-negative bacterial strains (E. coli and P. aeruginosa); experiment: Antibacterial MIC assay, Gram-negative strains together (range or geometric mean); format: cell-based; settings: Table S3; MIC >256 set to 256
Description: as §1

[11] = tested on: fungi (A. pullulans, C. albicans, Rhodotorula sp.); experiment: Antifungal MIC assay, all fungi together (range or geometric mean); format: cell-based; settings: Table S3; MIC >128 set to 128
Description: as §3

CN[C@H](CC(C)C)C(=O)N[C@H]1C(=O)N[C@@H](CC(N)=O)C(=O)N[C@H]2C(=O)N[C@H]3C(=O)N[C@H](C(=O)N[C@H](C(=O)O)c4cc(O)cc(O)c4-c4cc3ccc4O)[C@H](O)c3ccc(c(Cl)c3)Oc3cc2cc(c3O[C@@H]2O[C@H](CO)[C@@H](O)[C@H](O)[C@H]2O[C@H]2C[C@](C)(N)[C@H](O)[C@H](C)O2)Oc2ccc(cc2Cl)[C@H]1O [Vancomycin, reference compound]
MIC (E. coli (Ec, ATCC 25922); Escherichia coli, ATCC25922, read-out: MIC E. coli ATCC 25922 (from Table 1)): 125 µg/mL (≈ 86.3 µM) | MIC ([1]; Escherichia coli, read-out: MIC E. coli MC4100 (WT)): 64 µg/mL (≈ 44.2 µM) | MIC ([2]; Escherichia coli, read-out: MIC E. coli NR698 (mutant)): 0.3 µg/mL (≈ 0.207 µM)

CC(C)C[C@H](NC(=O)[C@H](CCCCN)NC(=O)[C@@H]1CSSC[C@H](N)C(=O)NCC(=O)N[C@@H](CCCCN)C(=O)N[C@@H](CCCCN)C(=O)N2CCC[C@H]2C(=O)NCC(=O)NCC(=O)N[C@@H](Cc2c[nH]c3ccccc23)C(=O)N[C@@H](CCCCN)C(=O)N1)C(N)=O [cTurg-1] (H-CGKKPGGWKCKL-NH2; disulfide 1-10; N-terminus assumed)
Antimicrobial Activity (MIC) Gram + Bs ([3]; ATCC 23857, 24 h): 256 µg/mL | Antimicrobial Activity (MIC) Gram + Cg ([4]; ATCC 13032, 24 h): 16 µg/mL | Antimicrobial Activity (MIC) Gram + Sa ([5]; ATCC 9144, 24 h): >256 µg/mL | Antimicrobial Activity (MIC) Gram + Se ([6]; ATCC 35984, 24 h): >256 µg/mL | Antimicrobial Activity (MIC) Gram − Ec (E. coli (Ec, ATCC 25922); ATCC 25922, 24 h): >256 µg/mL | Antimicrobial Activity (MIC) Gram − Pa ([7]; ATCC 27853, 24 h): >256 µg/mL | GM (geometric mean of the MIC values against all bacterial strains) (all bacterial strains; Table 1, six bacterial strains): 161 µg/mL | GM of MIC Tot. bact. (all bacterial strains; Table S3, all bacterial test strains, MIC >256 set to 256): 161 µg/mL | MIC against all bacterial strains (all bacterial strains; span over the strains): ≥ 256 µg/mL | Antimicrobial Activity (MIC) Fungi Ap (A. pullulans (Ap)): 32 µg/mL | Antimicrobial Activity (MIC) Fungi Ca ([8]; ATCC 10231, 48 h): 128 µg/mL | Antimicrobial Activity (MIC) Fungi Rh (Rhodotorula sp. (Rh)): 64 µg/mL | MIC E. coli NR698 (mutant) [2]: 64 µg/mL (≈ 49.2 µM) | GM of MIC G+ [9]: 128 µg/mL | GM of MIC G- [10]: 256 µg/mL | GM of MIC Fungi [11]: 64 µg/mL

Polymyxin B [reference compound]
Antimicrobial Activity (MIC) Gram + Bs ([3]; B. subtilis ATCC 23857, 24 h): 3.1 µg/mL | Antimicrobial Activity (MIC) Gram + Cg ([4]; C. glutamicum ATCC 13032, 24 h): 3.1 µg/mL | Antimicrobial Activity (MIC) Gram + Sa ([5]; S. aureus ATCC 9144, 24 h): 12.5 µg/mL | Antimicrobial Activity (MIC) Gram + Se ([6]; S. epidermidis RP62A ATCC 35984, 24 h): 6.3 µg/mL | Antimicrobial Activity (MIC) Gram − Ec (E. coli (Ec, ATCC 25922); E. coli ATCC 25922, 24 h): 3.1 µg/mL | MIC E. coli ATCC 25922 (from Table 1) (E. coli (Ec, ATCC 25922); Table 2, laboratory strain): 3.1 µg/mL | Antimicrobial Activity (MIC) Gram − Pa ([7]; P. aeruginosa ATCC 27853, 24 h): 3.1 µg/mL | Antimicrobial Activity (MIC) Fungi Ap (A. pullulans (Ap); A. pullulans): 3.1 µg/mL | Antimicrobial Activity (MIC) Fungi Ca ([8]; C. albicans ATCC 10231, 48 h): 12.5 µg/mL | Antimicrobial Activity (MIC) Fungi Rh (Rhodotorula sp. (Rh); Rhodotorula sp.): 3.1 µg/mL | MIC E. coli MC4100 (WT) ([1]; wild type): 0.8 µg/mL | MIC E. coli NR698 (mutant) [2]: 0.2 µg/mL
